How the values were obtained:
Assay type in all cases: in vivo, human
[1] = system: CTX1 (C-terminal telopeptide of collagen 1); assay: Serum CTX1 (bone resorption biomarker), MAD; conditions: mean±SEM
Description: (§1) All biomarkers were analyzed using standard immunoassays by PRA.
Pharmacological glucocorticoids cause bone side effects including osteopenia and bone fragility. Bone turnover markers bridged to later bone morbidities include osteocalcin for bone formation, and CTX1 (C-terminal telopeptide of collagen 1) for bone absorption. These biomarkers predict phenotypes of osteopenia and used in clinical trials to monitor bone side effects of treatments. […] (Supplemental Fig. 2). In the vamorolone Phase 1 trial, serum osteocalcin levels were assayed prior to dosing (Day 1 predose), 8 h after initial dose (Day 1), pre-dose on day 14 of daily dosing, 8 h after the day 14 (last) dose, and during recovery days 15 and 17.

[2] = Clinical safety (treatment-emergent adverse events), SAD
Description: In the SAD part of the study, 7 cohorts were to be enrolled. Eight subjects were assigned to each of Cohorts 1 to 5 and 7 and received a single oral dose of vamorolone (planned as 0.1 mg/kg, 0.3 mg/kg, 1.0 mg/kg, 3.0 mg/kg, 8.0 mg/kg, and 20.0 mg/kg, respectively) or placebo under fasted conditions. Six subjects were assigned to Cohort 6 and were administered a single oral dose of 8.0 mg/kg vamorolone within 30 min of beginning a high fat/high calorie meal.
Subjects in Cohorts 1 through 5 and 7 were randomized to receive vamorolone or placebo in a 3:1 ratio (6 subjects received vamorolone, and 2 subjects received placebo) sequentially. In Cohort 1, 3 sentinel subjects were administered vamorolone or placebo in a 2:1 ratio. Following a review of sentinel safety and tolerability data (including reported adverse events [AEs], clinical laboratory tests, vital signs, and electrocardiograms [ECGs]), the remaining 5 subjects were randomized to receive vamorolone or placebo in a 4:1 ratio and dosed no earlier than 48 h after sentinel dosing. In Cohorts 2 to 5, and 7, subjects were administered vamorolone or placebo in a 3:1 ratio. Once Cohort 5 was completed and safety data had been reviewed, subjects in Cohort 6 were administered a single oral dose of 8.0 mg/kg vamorolone within 30 min of beginning a standard high fat/high calorie meal.
After completion of all scheduled safety follow-up visits for a given cohort, a Safety Review Committee (SRC), comprised of the Principal Investigator (PI), the Sponsor’s Medical Monitor, and the Sponsor’s pharmacokineticist, reviewed all available PK and safety data (AEs, physical examination findings, ECGs, vital signs, and clinical laboratory tests) in a blinded manner for the completed cohort prior to making a decision to escalate to the next higher dose level.
In the SAD part, overall, six subjects (11%) administered vamorolone experienced a total of 10 treatment-emergent adverse events (TEAEs); no subject in the placebo group experienced any TEAEs. There was no dose-related trend in the incidence or severity of TEAEs; the dose group with the highest number of subjects reporting TEAEs was the 0.1 mg/kg dose group (2 subjects, 33%), and the highest number of TEAEs (3 events) was reported by 1 subject in the 1.0 mg/kg vamorolone dose group. In the 0.3 and 3.0 mg/kg vamorolone fasted and the 8.0 mg/kg fed dose groups, 1 subject per group (17%) experienced TEAEs, and no subjects in the 8.0 mg/kg and 20 mg/kg, fasted, dose groups experienced any TEAEs. The most common TEAEs were dizziness and headache, each reported by 2 subjects overall (4%); all other TEAEs were reported by only 1 subject (2%) and included ear pain, nausea, non-cardiac chest pain, and blood bilirubin increased. Three subjects (6%) had TEAEs that were considered possibly related to treatment. Possibly related TEAEs included nausea (1 subject, 2%), dizziness (2 subjects, 4%), and headache (2 subjects, 4%). […] All other TEAEs were mild in severity.

[3] = system: blood glucose (insulin resistance biomarker); assay: Blood glucose / fasting insulin, MAD; conditions: for Blood glucose: mean±SEM
Description: as §1
Glucocorticoids were originally named as such due to their potent and acute effects on glucose metabolism, where liver and muscle pathways for insulin signaling are rapidly and profoundly affected, creating a state of insulin resistance. […] Fasting insulin and glucose levels were assessed in all dose groups in the vamorolone Phase 1 SAD and MAD.

[4] = MAD 1.0 mg/kg, Day 1 (predose), baseline
[5] = MAD 1.0 mg/kg, Day 14 (predose)
[6] = MAD 3.0 mg/kg, Day 1 (predose), baseline
[7] = MAD 3.0 mg/kg, Day 14 (predose)
[8] = MAD 9.0 mg/kg, Day 1 (predose), baseline
[9] = MAD 9.0 mg/kg, Day 14 (predose)
[10] = MAD 20.0 mg/kg, Day 1 (predose), baseline
[11] = MAD 20.0 mg/kg, Day 14 (predose)

Work on `C[C@@H]1C[C@H]2[C@@H]3CCC4=CC(=O)C=C[C@]4(C)C3=CC[C@]2(C)[C@@]1(O)C(=O)CO` [vamorolone] yielded a CTX1 ([1]; MAD 1.0 mg/kg, Day 1 (8 h after initial dose)) of 0.22 ± 0.02 ng/mL, a CTX1 [1, 4] of 0.50 ± 0.11 ng/mL and a CTX1 ([1]; MAD 1.0 mg/kg, Day 14 (8 h after last dose)) of 0.22 ± 0.01 ng/mL. The CTX1 [1, 5] was 0.58 ± 0.12 ng/mL, the CTX1 ([1]; MAD 1.0 mg/kg, Day 15 recovery) was 0.68 ± 0.16 ng/mL and the CTX1 ([1]; MAD 1.0 mg/kg, Day 17 recovery) was 0.55 ± 0.09 ng/mL. It also gave a CTX1 ([1]; MAD 3.0 mg/kg, Day 1 (8 h after initial dose)) of 0.18 ± 0.00 ng/mL, a CTX1 [1, 6] of 0.31 ± 0.05 ng/mL and a CTX1 ([1]; MAD 3.0 mg/kg, Day 14 (8 h after last dose)) of 0.18 ± 0.00 ng/mL. The CTX1 [1, 7] was 0.48 ± 0.13 ng/mL, the CTX1 ([1]; MAD 3.0 mg/kg, Day 15 recovery) was 0.48 ± 0.10 ng/mL and the CTX1 ([1]; MAD 3.0 mg/kg, Day 17 recovery) was 0.46 ± 0.12 ng/mL. For the same compound, the CTX1 ([1]; MAD 9.0 mg/kg, Day 1 (8 h after initial dose)) was 0.19 ± 0.006 ng/mL, the CTX1 [1, 8] was 0.59 ± 0.11 ng/mL and the CTX1 ([1]; MAD 9.0 mg/kg, Day 14 (8 h after last dose)) was 0.23 ± 0.03 ng/mL. The CTX1 [1, 9] was 0.73 ± 0.14 ng/mL, the CTX1 ([1]; MAD 9.0 mg/kg, Day 15 recovery) was 0.77 ± 0.13 ng/mL and the CTX1 ([1]; MAD 9.0 mg/kg, Day 17 recovery) was 0.60 ± 0.10 ng/mL. The CTX1 ([1]; MAD 20.0 mg/kg, Day 1 (8 h after initial dose)) was 0.22 ± 0.02 ng/mL, the CTX1 [1, 10] was 0.70 ± 0.14 ng/mL and the CTX1 ([1]; MAD 20.0 mg/kg, Day 14 (8 h after last dose)) was 0.29 ± 0.06 ng/mL. For the same compound, the CTX1 [1, 11] was 0.88 ± 0.12 ng/mL, the CTX1 ([1]; MAD 20.0 mg/kg, Day 15 recovery) was 0.92 ± 0.14 ng/mL and the CTX1 ([1]; MAD 20.0 mg/kg, Day 17 recovery) was 0.76 ± 0.10 ng/mL. For the same compound, the “subjects reporting TEAEs” value ([2]; SAD 0.1 mg/kg (2 subjects)) was 33%, the “subjects experiencing TEAEs” value ([2]; SAD 0.3 mg/kg fasted (1 subject)) was 17% and the “number of TEAEs” value ([2]; SAD 1.0 mg/kg, reported by 1 subject) was 3 events. The “subjects experiencing TEAEs” value ([2]; SAD 3.0 mg/kg fasted (1 subject)) was 17%, the “subjects experiencing TEAEs” value ([2]; SAD 8.0 mg/kg fasted) was “no subjects” and the “subjects experiencing TEAEs” value ([2]; SAD 8.0 mg/kg fed (1 subject)) was 17%. For the same compound, the “subjects experiencing TEAEs” value ([2]; SAD 20 mg/kg fasted) was “no subjects”, the “subjects experiencing TEAEs, overall” value ([2]; SAD, all dose groups (six subjects, 10 TEAEs)) was 11% and the Blood glucose [3, 4] was 86 ± 1 md/dL. For the same compound, the Blood glucose ([3]; MAD 1.0 mg/kg, Day 2 predose) was 87 ± 2 md/dL, the Blood glucose ([3]; MAD 1.0 mg/kg, Day 3 predose) was 86 ± 2 md/dL and the Blood glucose ([3]; MAD 1.0 mg/kg, Day 7 predose) was 84 ± 2 md/dL. It also gave a Blood glucose ([3]; MAD 1.0 mg/kg, Day 12 predose) of 83 ± 1 md/dL, a Blood glucose [3, 5] of 84 ± 1 md/dL and a Blood glucose ([3]; MAD 1.0 mg/kg, Day 17 (3 days after last dose)) of 86 ± 1 md/dL. It also gave a Blood glucose ([3]; MAD 1.0 mg/kg, Day 21 follow-up) of 90 ± 3 md/dL, a Blood glucose ([3]; MAD 1.0 mg/kg, Day -1, baseline) of 90 ± 2 md/dL and a Blood glucose ([3]; MAD 1.0 mg/kg, Screening, baseline) of 92 ± 1 md/dL. The Blood glucose [3, 6] was 87 ± 1 md/dL, the Blood glucose ([3]; MAD 3.0 mg/kg, Day 2 predose) was 87 ± 1 md/dL and the Blood glucose ([3]; MAD 3.0 mg/kg, Day 3 predose) was 84 ± 2 md/dL. The Blood glucose ([3]; MAD 3.0 mg/kg, Day 7 predose) was 82 ± 1 md/dL, the Blood glucose ([3]; MAD 3.0 mg/kg, Day 12 predose) was 83.1 ± 1.4 md/dL and the Blood glucose [3, 7] was 81 ± 2 md/dL. For the same compound, the Blood glucose ([3]; MAD 3.0 mg/kg, Day 17 (3 days after last dose)) was 84 ± 1 md/dL, the Blood glucose ([3]; MAD 3.0 mg/kg, Day 21 follow-up) was 91 ± 2 md/dL and the Blood glucose ([3]; MAD 3.0 mg/kg, Day -1, baseline) was 90 ± 1 md/dL. For the same compound, the Blood glucose ([3]; MAD 3.0 mg/kg, Screening, baseline) was 90.1 ± 1.5 md/dL, the Blood glucose [3, 8] was 89 ± 2 md/dL and the Blood glucose ([3]; MAD 9.0 mg/kg, Day 2 predose) was 87 ± 1 md/dL. It also gave a Blood glucose ([3]; MAD 9.0 mg/kg, Day 3 predose) of 88 ± 2 md/dL, a Blood glucose ([3]; MAD 9.0 mg/kg, Day 7 predose) of 87 ± 2 md/dL and a Blood glucose ([3]; MAD 9.0 mg/kg, Day 12 predose) of 84 ± 2 md/dL. The Blood glucose [3, 9] was 84 ± 2 md/dL, the Blood glucose ([3]; MAD 9.0 mg/kg, Day 17 (3 days after last dose)) was 85 ± 2 md/dL and the Blood glucose ([3]; MAD 9.0 mg/kg, Day 21 follow-up) was 88 ± 2 md/dL. It also gave a Blood glucose ([3]; MAD 9.0 mg/kg, Day -1, baseline) of 89 ± 1 md/dL, a Blood glucose ([3]; MAD 9.0 mg/kg, Screening, baseline) of 89 ± 3 md/dL and a Blood glucose [3, 10] of 87 ± 1 md/dL. For the same compound, the Blood glucose ([3]; MAD 20.0 mg/kg, Day 2 predose) was 84 ± 1 md/dL, the Blood glucose ([3]; MAD 20.0 mg/kg, Day 3 predose) was 83 ± 1 md/dL and the Blood glucose ([3]; MAD 20.0 mg/kg, Day 7 predose) was 82 ± 1 md/dL. For the same compound, the Blood glucose ([3]; MAD 20.0 mg/kg, Day 12 predose) was 80 ± 2 md/dL, the Blood glucose [3, 11] was 80 ± 2 md/dL and the Blood glucose ([3]; MAD 20.0 mg/kg, Day 17 (3 days after last dose)) was 81 ± 2 md/dL. The Blood glucose ([3]; MAD 20.0 mg/kg, Day 21 follow-up) was 91 ± 3 md/dL, the Blood glucose ([3]; MAD 20.0 mg/kg, Day -1, baseline) was 89 ± 1 md/dL and the Blood glucose ([3]; MAD 20.0 mg/kg, Screening, baseline) was 90 ± 3 md/dL. For the same compound, the “fasting insulin and glucose levels vs placebo” value ([3]; all dose groups SAD and MAD, any time point) was “did not differ from placebo”.

Source: PMC6136660 (Steroids, 2018)
